Patent publication US20230212549A1, “COMPOUNDS COMPRISING A […] LIGAND AND USE THEREOF” (priority 2021, published 2023)
Like-named read-outs stand apart in the source and are kept apart here. Numbered stars: 1 amine (or outer) side, 2 acyl side, 3 side chain; on linkers, the order of the positions; unused ones are H or OH. Bridge positions count the residues as written; N and C are the ends. Square brackets hold non-standard residues; d marks the D form. Peptide text beside a SMILES is read from it. mXylylene = c1cc(C[*:1])cc(C[*:2])c1; NMeF = CN[C@@H](Cc1ccccc1)C(=O)O; Tic = O=C(O)[C@@H]1Cc2ccccc2CN1

Assays:
[1] = Plasma stability assay, mouse plasma; assay type: in vitro ADME; conditions: mouse, plasma; 4 h incubation, 37° C.; read-out: % intact compound remaining after incubation, Mouse plasma
[2] = molecular target: T1, FAP-expressing human WI-38 fibroblasts (Homo sapiens, UniProt Q12884); assay: Competitive FACS binding assay; conditions: for pIC50 Category (FACS): competition with 3 nM Cy5-labeled compound, 4° C., 1 hour, WI-38 fibroblasts
T1 construct: FAP-expressing human WI-38 fibroblasts (ECACC) were cultured in EMEM; host or cells: WI-38 human fibroblasts
T1 sequence (Q12884 whole entry): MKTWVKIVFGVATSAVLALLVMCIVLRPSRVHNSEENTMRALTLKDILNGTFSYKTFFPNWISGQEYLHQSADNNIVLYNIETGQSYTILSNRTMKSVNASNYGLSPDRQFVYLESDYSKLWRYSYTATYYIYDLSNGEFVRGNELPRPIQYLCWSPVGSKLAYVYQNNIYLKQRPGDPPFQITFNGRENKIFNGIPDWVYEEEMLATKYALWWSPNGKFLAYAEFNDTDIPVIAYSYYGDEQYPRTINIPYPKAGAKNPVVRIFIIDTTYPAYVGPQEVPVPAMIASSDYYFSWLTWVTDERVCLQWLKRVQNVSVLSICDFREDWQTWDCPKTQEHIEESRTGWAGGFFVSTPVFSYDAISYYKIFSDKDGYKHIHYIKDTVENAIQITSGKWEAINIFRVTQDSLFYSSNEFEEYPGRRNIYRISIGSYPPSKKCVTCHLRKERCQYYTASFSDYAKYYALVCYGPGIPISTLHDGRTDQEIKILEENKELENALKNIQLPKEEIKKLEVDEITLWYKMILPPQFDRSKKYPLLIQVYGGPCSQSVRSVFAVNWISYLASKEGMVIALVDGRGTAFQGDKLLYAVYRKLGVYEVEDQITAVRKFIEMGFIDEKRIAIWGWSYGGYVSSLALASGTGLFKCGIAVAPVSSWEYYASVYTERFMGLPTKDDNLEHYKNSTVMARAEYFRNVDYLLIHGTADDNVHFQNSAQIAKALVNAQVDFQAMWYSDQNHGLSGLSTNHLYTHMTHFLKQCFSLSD
Experimental: Cells were analyzed in an Attune NxT flow cytometer. […] […].
Cells were analyzed in an Attune NxT flow cytometer. […]

Human recombinant FAP [3] = molecular target: T2, Human recombinant FAP (Homo sapiens, UniProt Q12884); assay: FRET-based FAP protease activity assay; assay type: biochemical; parameters: purchased R&D systems 3715-SE; conditions: for pIC50 Category (activity): FRET-peptide substrate
T2 sequence (Q12884 whole entry): as above

Human recombinant FAP [4] = molecular target: T2, Human recombinant FAP; assay: Surface plasmon resonance (Biacore) assay; assay type: binding; conditions: for pKD Category: Biacore, SCK mode, 25° C.
[5] = Radiochemical purity by HPLC of ^99mTc-labeled compounds; assay type: physicochemical; conditions: 99Tc-labeled compounds
Experimental: 100-500 MBq of ^99mTcO4 (in saline) were mixed with 11 μl of 0.5 M phosphate buffer pH 11.5-12.0 and 1.1 μl of 0.1 M trisodium citrate per 100 μl radionuclide solution. […] The mixture was incubated for 30 min at 25-50′° C. At the end of the incubation time, the mixture was neutralized with 3.0 μl 1 M HCl per 10 μl phosphate buffer and TWEEN-20 was added at a final concentration of 0.100.

HEK-FAP tumor [6] = conditions: for uptake BPS 1 h / uptake BPS 3 h / uptake BPS 6 h / uptake Tumor 1 h / uptake Tumor 3 h / uptake Tumor 6 h / uptake Kidneys 1 h / uptake Kidneys 3 h / uptake Kidneys 6 h: ^99mTc-labeled, SPECT/CT; for uptake BPS 1 h / uptake BPS 3 h / uptake BPS 6 h: BPS (blood pool surrogate); for uptake BPS 1 h / uptake Tumor 1 h / uptake Kidneys 1 h: 1 h post tracer injection; for uptake BPS 3 h / uptake Tumor 3 h / uptake Kidneys 3 h: 3 h post tracer injection; for uptake BPS 6 h / uptake Tumor 6 h / uptake Kidneys 6 h: 6 h post tracer injection; for uptake Tumor 1 h / uptake Tumor 3 h / uptake Tumor 6 h: HEK-FAP tumor; for uptake in healthy tissues (biodistribution): ^99mTc-labelled, 1-6 h post injection, compared to 3BP-4219 and 3BP-4221
in vivo = conditions: swiss nude, mouse, iv
HEK-FAP tumor [7] = conditions: ^68Ga-labeled, PET/CT
[8] = pIC50 Category (activity), Recombinant human FAP

CSCC[C@H](NC(C)=O)C(=O)N[C@H]1CSCc2cccc(c2)CSC[C@@H](C(=O)N[C@@H](CC(=O)O)C(=O)N[C@@H](Cc2c[nH]cn2)C(=O)N(C)[C@@H](Cc2ccccc2)C(=O)N[C@@H](CCCNC(=N)N)C(=O)N[C@@H](CC(=O)O)C(N)=O)NC(=O)[C@H](Cc2ccccc2)NC(=O)[C@H](CCC(=O)O)NC(=O)[C@H]([C@@H](C)O)NC(=O)[C@@H]2CCCN2C(=O)[C@@H]2CCCN2C1=O [3BP-3188, Ac-Met-[Cys(3MeBn)-Pro-Pro-Thr-Glu-Phe-Cys]-Asp-His-Nmf-Arg-Asp-NH2] (Ac-MCPPTEFCDH[NMeF]RD-NH2; linker 2-8 via mXylylene)
remaining at 4 h, 9.8 µM [1]: 97%
IC50 [2]: < 10 nM
IC50 (Human recombinant FAP [3]; pIC50 Category (Activity), FRET-based FAP protease activity assay, recombinant human FAP, 37° C.): < 10 nM

CSCC[C@@H](NC(C)=O)C(=O)N[C@H]1CSCc2cccc(c2)CSC[C@@H](C(=O)N[C@@H](CC(=O)O)C(=O)N[C@@H](Cc2c[nH]cn2)C(=O)N[C@@H](Cc2ccccc2)C(=O)N[C@@H](CCCNC(=N)N)C(=O)N[C@@H](CC(=O)O)C(N)=O)NC(=O)[C@H](Cc2ccccc2)NC(=O)[C@H](CCC(=O)O)NC(=O)[C@H]([C@@H](C)O)NC(=O)[C@@H]2CCCN2C(=O)[C@@H]2CCCN2C1=O [3BP-3187, Ac-met-[Cys(3MeBn)-Pro-Pro-Thr-Glu-Phe-Cys]-Asp-His-Phe-Arg-Asp-NH2] (Ac-[dM]CPPTEFCDHFRD-NH2; linker 2-8 via mXylylene)
remaining at 4 h, 9.8 µM [1]: 100%

N4Ac-Ttds-Nle-[Cys-(3MeBn)-Pro-Pro-Thr-Gln-Phe-Cys]-OH [3BP-4219]
pIC50 Category (FACS) [2]: B (category B for pIC50 values between 7.1 and 8.0)
pKD Category (Human recombinant FAP [4]): A (Category A stands for pKD values >8.0)
HPLC Area % at end of synthesis [5]: 94.8%
HPLC Area % appr. 4 h post end of synthesis ([5]; (5.5 h)): 93.8%
uptake BPS 1 h (HEK-FAP tumor [6]): 0.21 % ID/g
uptake BPS 3 h (HEK-FAP tumor [6]): 0.09 % ID/g
uptake BPS 6 h (HEK-FAP tumor [6]): 0.07 % ID/g
uptake Tumor 1 h (HEK-FAP tumor [6]): 6.80 % ID/g
uptake Tumor 3 h (HEK-FAP tumor [6]): 7.62 % ID/g
uptake Tumor 6 h (HEK-FAP tumor [6]): 4.52 % ID/g
uptake Kidneys 1 h (HEK-FAP tumor [6]): 1.85 % ID/g
uptake Kidneys 3 h (HEK-FAP tumor [6]): 1.84 % ID/g
uptake Kidneys 6 h (HEK-FAP tumor [6]): 0.55 % ID/g
pIC50 Category (activity) (Human recombinant FAP [3]; 37° C.): A (pIC50 category A stands for pIC50 values >8.0)

CCCC[C@H](NC(=O)CCC(=O)NCCCOCCOCCOCCCNC(=O)CN1CCN(C(=O)C(CNCCN)CNCCN)CC1)C(=O)N[C@H]1CSCc2cccc(c2)CSCC(C(=O)O)NC(=O)[C@H](Cc2ccccc2)NC(=O)[C@H](CCC(N)=O)NC(=O)[C@H]([C@@H](C)O)NC(=O)[C@@H]2CCCN2C(=O)[C@@H]2CCCN2C1=O (stereo partly drawn) [3BP-4541, N4Ac-PPAc-Ttds-Nle-[Cys(3MeBn)-Pro-Pro-Thr-Gln-Phe-Cys]-OH]
IC50 [2]: 10 to 79.4 nM
Kd (Human recombinant FAP [4]): 10 to 79.4 nM
HPLC Area % appr. 4 h post end of synthesis [5]: 89.7%
HPLC Area % at end of synthesis [5]: 95.8%
uptake in healthy tissues (biodistribution) (HEK-FAP tumor [6]): decreased uptake in healthy tissues over time
tissue uptake at 1 h (in vivo; blood pool surrogate (BPS)): 0.48 %ID/g
tissue uptake at 3 h (in vivo; blood pool surrogate (BPS)): 0.2 %ID/g
tissue uptake at 6 h (in vivo; blood pool surrogate (BPS)): 0.06 %ID/g
tissue uptake at 1 h (in vivo; kidneys): 4.02 %ID/g
tissue uptake at 3 h (in vivo; kidneys): 2.41 %ID/g
tissue uptake at 6 h (in vivo; kidneys): 1.01 %ID/g
tissue uptake at 1 h (in vivo; tumor): 8.81 %ID/g
tissue uptake at 3 h (in vivo; tumor): 9.76 %ID/g
tissue uptake at 6 h (in vivo; tumor): 7.48 %ID/g
IC50 (Human recombinant FAP [3]; [8]): 10 to 79.4 nM

CCCC[C@H](NC(=O)CCC(=O)NCCCOCCOCCOCCCNC(=O)CCC(C(=O)O)N1CCN(CC(=O)O)CCN(CC(=O)O)CC1)C(=O)N[C@H]1CSCc2cccc(c2)CSCC(C(=O)O)NC(=O)[C@H](Cc2ccccc2)NC(=O)[C@H](CCC(N)=O)NC(=O)[C@H]([C@@H](C)O)NC(=O)[C@@H]2CCCN2C(=O)[C@@H]2CCCN2C1=O (stereo partly drawn) [3BP-4713, NODAGA-Ttds-Nle-[Cys(3MeBn)-Pro-Pro-Thr-Gln-Phe-Cys]-OH]
IC50 [2]: 10 to 79.4 nM
uptake BPS 0.25 h (HEK-FAP tumor [7]; BPS (blood pool surrogate), 0.25 h post tracer injection): 2.27 % ID/g
uptake BPS 1 h (HEK-FAP tumor [7]; BPS (blood pool surrogate), 1 h post tracer injection): 0.77 % ID/g
uptake BPS 3 h (HEK-FAP tumor [7]; BPS (blood pool surrogate), 3 h post tracer injection): 0.19 % ID/g
uptake Tumor 0.25 h (HEK-FAP tumor [7]; HEK-FAP tumor, 0.25 h post tracer injection): 3.46 % ID/g
uptake Tumor 1 h (HEK-FAP tumor [7]; HEK-FAP tumor, 1 h post tracer injection): 3.90 % ID/g
uptake Tumor 3 h (HEK-FAP tumor [7]; HEK-FAP tumor, 3 h post tracer injection): 3.21 % ID/g
uptake Kidneys 0.25 h (HEK-FAP tumor [7]; kidneys, 0.25 h post tracer injection): 9.05 % ID/g
uptake Kidneys 1 h (HEK-FAP tumor [7]; kidneys, 1 h post tracer injection): 2.50 % ID/g
uptake Kidneys 3 h (HEK-FAP tumor [7]; kidneys, 3 h post tracer injection): 0.82 % ID/g
IC50 (Human recombinant FAP [3]; [8]): 10 to 79.4 nM

CSCC[C@H](NC(C)=O)C(=O)N[C@H]1CSCc2cccc(c2)CSC[C@@H](C(=O)N[C@@H](CC(=O)O)C(=O)N[C@@H](Cc2c[nH]cn2)C(=O)N2Cc3ccccc3C[C@H]2C(=O)N[C@@H](CCCNC(=N)N)C(=O)N[C@@H](CC(=O)O)C(N)=O)NC(=O)[C@H](Cc2ccccc2)NC(=O)[C@H](CCC(=O)O)NC(=O)[C@H]([C@@H](C)O)NC(=O)[C@@H]2CCCN2C(=O)[C@@H]2CCCN2C1=O [3BP-3189, Ac-Met-[Cys(3MeBn)-Pro-Pro-Thr-Glu-Phe-Cys]-Asp-His-Tic-Arg-Asp-NH2] (Ac-MCPPTEFCDH[Tic]RD-NH2; linker 2-8 via mXylylene)
remaining at 4 h, 9.8 µM [1]: 100%

N4Ac-PEG6-Nle-[Cys-(3MeBn)-Pro-Pro-Thr-Glu-Phe-Cys]-OH [3BP-4221]
pIC50 Category (FACS) [2]: B (category B for pIC50 values between 7.1 and 8.0)
pKD Category (Human recombinant FAP [4]): A (Category A stands for pKD values >8.0)
HPLC Area % at end of synthesis [5]: 99.0%
HPLC Area % appr. 4 h post end of synthesis ([5]; (5.5 h)): 97.4%
uptake BPS 1 h (HEK-FAP tumor [6]): 0.54 % ID/g
uptake BPS 3 h (HEK-FAP tumor [6]): 0.27 % ID/g
uptake BPS 6 h (HEK-FAP tumor [6]): 0.16 % ID/g
uptake Tumor 1 h (HEK-FAP tumor [6]): 8.51 % ID/g
uptake Tumor 3 h (HEK-FAP tumor [6]): 8.32 % ID/g
uptake Tumor 6 h (HEK-FAP tumor [6]): 7.97 % ID/g
uptake Kidneys 1 h (HEK-FAP tumor [6]): 4.74 % ID/g
uptake Kidneys 3 h (HEK-FAP tumor [6]): 3.73 % ID/g
uptake Kidneys 6 h (HEK-FAP tumor [6]): 2.56 % ID/g
pIC50 Category (activity) (Human recombinant FAP [3]; 37° C.): B (category B for pIC50 values between 7.1 and 8.0)

CCCC[C@H](NC(=O)CCC(=O)NCCCOCCOCCOCCCNC(=O)CN1CCN(C(=O)C(CNCCN)CNCCN)CC1)C(=O)N[C@H]1CSCc2cncc(c2)CSC[C@@H](C(=O)NCCC(=O)O)NC(=O)[C@H](Cc2ccccc2)NC(=O)[C@H](CCC(N)=O)NC(=O)[C@H]([C@@H](C)O)NC(=O)[C@@H]2CCCN2C(=O)[C@@H]2CCCN2C1=O [3BP-4961, N4Ac-PPAc-Ttds-Nle-[Cys(3Lut)-Pro-Pro-Thr-Gln-Phe-Cys]-Bal-OH]
IC50 [2]: < 10 nM
Kd (Human recombinant FAP [4]): < 10 nM
HPLC Area % at end of synthesis [5]: 98.0%
uptake in healthy tissues (biodistribution) (HEK-FAP tumor [6]): decreased uptake in healthy tissues over time
tissue uptake at 1 h (in vivo; blood pool surrogate (BPS)): 0.47 %ID/g
tissue uptake at 3 h (in vivo; blood pool surrogate (BPS)): 0.31 %ID/g
tissue uptake at 6 h (in vivo; blood pool surrogate (BPS)): 0.11 %ID/g
tissue uptake at 1 h (in vivo; kidneys): 2.36 %ID/g
tissue uptake at 3 h (in vivo; kidneys): 1.12 %ID/g
tissue uptake at 6 h (in vivo; kidneys): 0.77 %ID/g
tissue uptake at 1 h (in vivo; tumor): 10.5 %ID/g
tissue uptake at 3 h (in vivo; tumor): 11.4 %ID/g
tissue uptake at 6 h (in vivo; tumor): 12.3 %ID/g
IC50 (Human recombinant FAP [3]; [8]): < 10 nM
